This note sets out measurements from patent publication US11905306B2 (priority 2021, dated 2024).

Data set [1] relates to SARS-2. The experiment in a line: microbe, parasite or virus in culture. The format is cell-based. The conditions noted are these: Severe acute respiratory syndrome coronavirus 2, read-out: SARS-2 VU-EC50 (μM) (A549-hACE2).
Data set [2] can be described thus: in vitro. The conditions noted are these: African green monkey.
The test system of data set [3] is USA_WA1/2020 SARS CoV-2. Description: microbe, parasite or virus in culture. The format is cell-based. The conditions noted are these: Severe acute respiratory syndrome coronavirus 2, Vero C1008, 72 h, read-out: SARS-2 EC50 (μM) VeroE6.
Data set [4] has as its system SARS-2.
Data set [5] concerns Toronto 2 SARS CoV-1. The experiment in a line: organism not typed. The format is cell-based. The settings on record: Vero C1008, 72 h, read-out: SARS-1 EC50 (μM) VeroE6.

For the molecule `O=C(Nc1ccc(N2CCCCS2(=O)=O)cc1)c1cccc(C#Cc2ccccn2)c1` [Compound 70, N-(4-(1,1-dioxido-1,2-thiazinan-2-yl)phenyl)-3-(pyridin-2-ylethynyl)benzamide], the EC50 (as a rule, the concentration at which the effect is half-maximal) came out at 0.82 µM in data set [1], 1.08 µM in data set [3] and 1.29 µM in data set [5]. In data set [2], this molecule returned a CC50 greater than 30 µM. Also, the “SARS-2 VU-VTR @ 20 μM (A549-hACE2) (logs)” value in data set [4] worked out at 2.47 logs.

As for `O=C(Nc1ccc(C(=O)Nc2cccc(C#Cc3ccccn3)c2)cc1)c1ccc(F)cc1` [Compound 26, 4-Fluoro-N-(4-((3-(pyridin-2-ylethynyl)phenyl)carbamoyl)phenyl)benzamide], the results for the EC50 in data set [1], in data set [3] and in data set [5] were 0.69 µM, 0.49 µM and 0.35 µM, respectively. Further, in data set [2], the CC50 is greater than 30 µM. In addition, in data set [4], the “SARS-2 VU-VTR @ 20 μM (A549-hACE2) (logs)” value is on record as 1.16 logs.

As to `O=C(Nc1cccc(C#Cc2ccccn2)c1)c1ccc(N2CCCCC2=O)cc1` [Compound 22, 4-(2-Oxopiperidin-1-yl)-N-(3-(pyridin-2-ylethynyl)phenyl)benzamide], the EC50 amounted to 1.05 µM in data set [1], 1.87 µM in data set [3] and 1.3 µM in data set [5]. In addition, in data set [2], the CC50 is greater than 30 µM. Further, the “SARS-2 VU-VTR @ 20 μM (A549-hACE2) (logs)” value in data set [4] was 2.4 logs.

As to `CN1C(=O)CCc2cc(C(=O)Nc3cccc(C#Cc4ccccn4)c3)ccc21` [Compound 2, 1-Methyl-2-oxo-N-(3-(pyridin-2-ylethynyl)phenyl)-1,2,3,4-tetrahydroquinoline-6-carboxamide], the values for the EC50 in data set [1], in data set [3] and in data set [5] were 3.59 µM, 2.55 µM and 1.46 µM, respectively. The CC50 in data set [2] was greater than 30 µM. The “SARS-2 VU-VTR @ 20 μM (A549-hACE2) (logs)” value in data set [4] was 3.32 logs.

On to `COc1cc(C#Cc2ccccn2)cc(NC(=O)c2ccc(N3CCCCC3=O)cc2)c1` [Compound 48, N-(3-Methoxy-5-(pyridin-2-ylethynyl)phenyl)-4-(2-oxopiperidin-1-yl)benzamide], for which the figures for the EC50 in data set [1], in data set [3] and in data set [5] were 0.1 µM, 0.45 µM and 0.21 µM, respectively. The molecule further came in with a CC50 in data set [2] greater than 30 µM. In data set [4], the “SARS-2 VU-VTR @ 20 μM (A549-hACE2) (logs)” value amounted to 3.08 logs.

On to `COC(=O)c1ccc(C(=O)Nc2cccc(C#Cc3ccccn3)c2)cc1` [Compound 43, Methyl 4-((3-(pyridin-2-ylethynyl)phenyl)carbamoyl)benzoate], for which the EC50 in data set [1] turned out to be 0.58 µM; in data set [3] it was 0.52 µM; in data set [5] it was 0.26 µM. Also, in data set [2], the CC50 was greater than 30 µM. For the same molecule, the “SARS-2 VU-VTR @ 20 μM (A549-hACE2) (logs)” value in data set [4] was 2.36 logs.

With `O=C1CCCc2cc(C(=O)Nc3cccc(C#Cc4ccccn4)c3)ccc2N1` [Compound 4, 2-Oxo-N-(3-(pyridin-2-ylethynyl)phenyl)-2,3,4,5-tetrahydro-1H-benzo[b]azepine-7-carboxamide], the EC50 in data set [1] came to 1.5 µM; in data set [3], 1.5 µM; in data set [5] it was 1.39 µM. Further, the CC50 in data set [2] was 22.9 µM. In addition, in data set [4], the “SARS-2 VU-VTR @ 20 μM (A549-hACE2) (logs)” value is reported as 2.55 logs.

For the molecule `CC(C)n1nccc1-c1ccc(NC(=O)c2cccc(C#Cc3ccccn3)c2)cc1` [Compound 69, N-(4-(1-isopropyl-1H-pyrazol-5-yl)phenyl)-3-(pyridin-2-ylethynyl)benzamide], the EC50 turned out to be 0.22 µM in data set [1], 0.45 µM in data set [3] and 0.24 µM in data set [5]. This molecule gave a CC50 in data set [2] greater than 30 µM. Besides, the “SARS-2 VU-VTR @ 20 μM (A549-hACE2) (logs)” value in data set [4] is reported as 3.3 logs.

Regarding `O=C(Nc1cccc(C#Cc2ccccn2)c1)c1ccc(N2CCNC2=O)cc1` [Compound 14, 4-(2-Oxoimidazolidin-1-yl)-N-(3-(pyridin-2-ylethynyl)phenyl)benzamide], the EC50 in data set [1] came to 2.31 µM; in data set [3], 1.06 µM; in data set [5], 1.05 µM. Further, the CC50 in data set [2] was greater than 30 µM. For the same molecule, the “SARS-2 VU-VTR @ 20 μM (A549-hACE2) (logs)” value in data set [4] amounted to 1.84 logs.

`CC(C)OC(=O)c1ccc(NC(=O)c2cccc(C#Cc3ccccn3)c2)cc1` [Compound 65, Isopropyl 4-(3-(pyridin-2-ylethynyl)benzamido)benzoate]: the EC50 was 0.29 µM in data set [1], 0.46 µM in data set [3] and 0.16 µM in data set [5]. The same molecule yielded a CC50 in data set [2] greater than 30 µM. For the same molecule, in data set [4], the “SARS-2 VU-VTR @ 20 μM (A549-hACE2) (logs)” value is listed as 2.78 logs.

Take `CCOP(=O)(OCC)c1ccc(NC(=O)c2cccc(C#Cc3ccccn3)c2)cc1` [Compound 73, Diethyl (4-(3-(pyridin-2-ylethynyl)benzamido)phenyl)phosphonate]: the EC50 is 0.003 µM in data set [1], 0.45 µM in data set [3] and 0.18 µM in data set [5]. Moreover, the CC50 in data set [2] was greater than 30 µM. For the same molecule, in data set [4], the “SARS-2 VU-VTR @ 20 μM (A549-hACE2) (logs)” value turned out to be 2.93 logs.

For `O=C1CCc2cc(C(=O)Nc3cccc(C#Cc4ccccn4)c3)ccc2N1` [Compound 1, 2-Oxo-N-(3-(pyridin-2-ylethynyl)phenyl)-1,2,3,4-tetrahydroquinoline-6-carboxamide], the EC50 was 7.32 µM in data set [1], 5.81 ± 2.51 µM in data set [3] and 5.07 ± 2.89 µM in data set [5]. This molecule also yielded a CC50 in data set [2] greater than 30 µM. Also, the “SARS-2 VU-VTR @ 20 μM (A549-hACE2) (logs)” value in data set [4] amounted to 1.95 logs.

`O=C(Nc1ccc(N2CCCCC2=O)cc1)c1cccc(C#Cc2ccccn2)c1` [Compound 59, N-(4-(2-oxopiperidin-1-yl)phenyl)-3-(pyridin-2-ylethynyl)benzamide]: the EC50 in data set [1] amounted to 0.66 µM; in data set [3] it was 2 µM; in data set [5], 1.05 µM. In addition, in data set [2], the CC50 was greater than 30 µM. Also, in data set [4], the “SARS-2 VU-VTR @ 20 μM (A549-hACE2) (logs)” value is 2.98 logs.

`O=C1CCc2cc(NC(=O)c3cccc(C#Cc4ccccn4)c3)ccc2N1` [Compound 54, N-(2-oxo-1,2,3,4-tetrahydroquinolin-6-yl)-3-(pyridin-2-ylethynyl)benzamide]: the EC50 in data set [1] is 1.42 µM; in data set [3] it was 3 µM; in data set [5], greater than 30 µM. In data set [2], this molecule displayed a CC50 greater than 30 µM. In data set [4], the “SARS-2 VU-VTR @ 20 μM (A549-hACE2) (logs)” value was determined as 2.24 logs.

On to `O=C(Nc1ccc(C(=O)OCC2CC2)cc1)c1cccc(C#Cc2ccccn2)c1` [Compound 66, Cyclopropylmethyl 4-(3-(pyridin-2-ylethynyl)benzamido)benzoate], for which the EC50 stood at 0.46 µM in data set [1], 0.83 µM in data set [3] and 0.49 µM in data set [5]. This molecule also came in with a CC50 in data set [2] greater than 30 µM. Also, in data set [4], the “SARS-2 VU-VTR @ 20 μM (A549-hACE2) (logs)” value worked out at 1.73 logs.

For `CC(C)N1CCN(c2ccc(C(=O)Nc3cccc(C#Cc4ccccn4)c3)cc2)C1=O` [Compound 17, 4-(3-Isopropyl-2-oxoimidazolidin-1-yl)-N-(3-(pyridin-2-ylethynyl)phenyl)benzamide], the concentration for a half-maximal effect (EC50) in data set [1] amounted to 0.43 µM; in data set [3], 0.61 µM; in data set [5] it was 2.37 µM. This molecule registered a CC50 in data set [2] greater than 30 µM. For the same molecule, the “SARS-2 VU-VTR @ 20 μM (A549-hACE2) (logs)” value in data set [4] is listed as 2.12 logs.

Regarding `COc1cc(C#Cc2ccccn2)cc(NC(=O)c2ccc3c(c2)CCC(=O)N3)c1` [Compound 46, N-(3-Methoxy-5-(pyridin-2-ylethynyl)phenyl)-2-oxo-1,2,3,4-tetrahydroquinoline-6-carboxamide], the EC50 in data set [1] is 0.53 µM; in data set [3], 0.78 µM; in data set [5], 0.83 µM. Besides, the CC50 in data set [2] is greater than 30 µM. Moreover, in data set [4], the “SARS-2 VU-VTR @ 20 μM (A549-hACE2) (logs)” value is on record as 2.66 logs.
